Among the test systems are 786-0 renal; DMS 114 small cell lung; DMS 273 small cell lung; EKVX NSCLC; KM20L2 colon; MOLT-4 leukemia; UACC-257 melanoma; UO-31 renal; CAKI-1 renal; RXF 393 renal; MDA-MB-231 breast.
Holding throughout (assay): NCI-60 cell line screen, 48 h

The values below come from PubChem BioAssay (NCI).

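1) Cells in 96-well plates. 2) Compound, 48 h, 5 concentrations. 3) Linear interpolation between surrounding doses. 4) Unreached endpoint = highest concentration. Abbreviation: GI50, concentration required for 50% inhibition of growth. TGI is the concentration that stops growth completely.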

On to `CC(C)N(C(=O)C12C3C4C5(C#N)C3C1(C#N)C5C42C#N)C(C)C` (stereo not drawn), for which the TGI with 786-0 renal, in the test with DMS 114 small cell lung, in the test with DMS 273 small cell lung, in the test with EKVX NSCLC, in the test on KM20L2 colon and in the test on MOLT-4 leukemia was more than 100 µM in each case. Besides, the TGI in the test with UACC-257 melanoma and in the test with UO-31 renal was more than 100 µM in each case.
Regarding `C=C[C@@H](C)[C@]1(C(=O)OC)CCCC12OCCO2`, the TGI in the test with 786-0 renal, in the test on CAKI-1 renal, in the test with DMS 114 small cell lung, in the test on DMS 273 small cell lung, in the test with EKVX NSCLC and in the test with KM20L2 colon was more than 100 µM throughout. In addition, the TGI in the test with MOLT-4 leukemia, in the test with RXF 393 renal, with UACC-257 melanoma and in the test with UO-31 renal was more than 100 µM each time.
As for `CN(CCS(=O)(=O)N1C(=O)C2CCCN2C(=O)[C@@H]1Cc1ccccc1)C(=O)OCc1ccccc1` (stereo partly drawn), the TGI is more than 100 µM in the test with 786-0 renal; more than 100 µM in the test on CAKI-1 renal; more than 100 µM with DMS 114 small cell lung; more than 100 µM in the test with EKVX NSCLC; more than 100 µM in the test on KM20L2 colon; 53.5 µM with MOLT-4 leukemia. Moreover, the TGI in the test on RXF 393 renal, in the test on UACC-257 melanoma and with UO-31 renal was more than 100 µM each time.
In the case of `O=C(/C=C\c1ccccc1O)c1ccc(O)cc1O`, the TGI in the test with 786-0 renal, in the test on CAKI-1 renal, in the test with DMS 114 small cell lung, with DMS 273 small cell lung, in the test on EKVX NSCLC and in the test with KM20L2 colon was more than 100 µM in each case. The TGI in the test on MOLT-4 leukemia, in the test with RXF 393 renal, with UACC-257 melanoma and with UO-31 renal was more than 100 µM each time.
Consider `O=C1[C@H]2ON(c3ccccc3)C(c3ccc([N+](=O)[O-])cc3)[C@H]2C(=O)N1c1ccc(Cc2ccc(N3C(=O)[C@@H]4ON(c5ccccc5)C(c5ccc([N+](=O)[O-])cc5)[C@@H]4C3=O)cc2)cc1` (stereo partly drawn), for which the TGI with 786-0 renal, in the test on CAKI-1 renal, in the test on DMS 114 small cell lung, with DMS 273 small cell lung, in the test with EKVX NSCLC and in the test with KM20L2 colon was more than 100 µM each time. Moreover, the TGI with MOLT-4 leukemia, in the test with RXF 393 renal, with UACC-257 melanoma and with UO-31 renal was more than 100 µM each time.
As to `Cc1ccc(C)c(N2C(=O)C(=O)C(c3nc4ccccc4s3)/C(=N/N)C2=O)c1` (stereo not drawn), the TGI in the test on 786-0 renal, with CAKI-1 renal, in the test on DMS 114 small cell lung, with DMS 273 small cell lung, with EKVX NSCLC and in the test on KM20L2 colon was more than 100 µM throughout. Moreover, the TGI was more than 100 µM in the test on MOLT-4 leukemia, more than 100 µM in the test with RXF 393 renal, more than 74.5 µM in the test with UACC-257 melanoma and more than 100 µM with UO-31 renal.
On to `Cc1cnc2ccc(C)c([N+](=O)[O-])c2c1NCCCN(C)C`, for which the TGI in the test on 786-0 renal, in the test on CAKI-1 renal, in the test on DMS 114 small cell lung, in the test with DMS 273 small cell lung, in the test on EKVX NSCLC and in the test with KM20L2 colon was more than 100 µM throughout. Also, the TGI in the test on MOLT-4 leukemia, in the test on UACC-257 melanoma and with UO-31 renal was more than 100 µM in each case.
In the case of `C/C(=N\N=C(N)N)C(CN1CCCCC1)C(c1ccccc1)c1c(O)c2ccccc2oc1=O` (stereo not drawn), the TGI in the test on 786-0 renal, in the test on CAKI-1 renal, with DMS 114 small cell lung, in the test with EKVX NSCLC, in the test on KM20L2 colon and in the test on RXF 393 renal was more than 100 µM in each case. Besides, in the test with UACC-257 melanoma, the TGI was more than 100 µM.
As to `Cc1c(C)c2ccc3oc4ccccc4c3c2oc1=O`, the TGI in the test on 786-0 renal, in the test with CAKI-1 renal, in the test on DMS 114 small cell lung, in the test with EKVX NSCLC, in the test with KM20L2 colon and with MOLT-4 leukemia was more than 100 µM throughout. For the same compound, the TGI with RXF 393 renal, in the test on UACC-257 melanoma and in the test with UO-31 renal was more than 100 µM in each case.
As to `COc1cc2cc(OC(C)=O)c3cc4c(cc3c2c(OC)c1OC)OCO4`, the TGI in the test on 786-0 renal, in the test with DMS 114 small cell lung, with DMS 273 small cell lung, in the test with EKVX NSCLC, in the test on KM20L2 colon and in the test with MOLT-4 leukemia was more than 100 µM in each case. The TGI in the test on RXF 393 renal, in the test on UACC-257 melanoma and with UO-31 renal was more than 100 µM each time.
Regarding `CCC[C@H]1O[C@@H]2CC(=O)O[C@@H]2C2=C1C(=O)C=CC2=O`, the TGI in the test with 786-0 renal was 30.3 µM; in the test with CAKI-1 renal, 34.1 µM; in the test with DMS 273 small cell lung, 19.5 µM; in the test on EKVX NSCLC, more than 62.4 µM; with KM20L2 colon it was 43.8 µM; in the test with MOLT-4 leukemia, 8.98 µM. Also, the figures for the TGI in the test with RXF 393 renal, in the test on UACC-257 melanoma and with UO-31 renal were 30.4 µM, 34.8 µM and 32.5 µM, respectively.
As for `NC(=O)NNC(=O)CCn1[nH]c(=O)c(Cl)c(Cl)c1=O`, the TGI in the test with 786-0 renal, with CAKI-1 renal, with DMS 114 small cell lung, in the test on DMS 273 small cell lung, in the test on EKVX NSCLC and in the test on KM20L2 colon was more than 100 µM in each case. For the same compound, the TGI in the test on RXF 393 renal, in the test with UACC-257 melanoma and in the test with UO-31 renal was more than 100 µM each time.
As for `COc1cc(/C=C2\CC3C4CC=C5C[C@@H](OC(C)=O)CC[C@]5(C)C4CC[C@]3(C)C2=O)ccc1OCCN1CCCCC1` (stereo partly drawn), the GI50 in the test on 786-0 renal was 1.66 µM; in the test on CAKI-1 renal it was 2.65 µM; in the test with EKVX NSCLC it was 13.7 µM; in the test with MDA-MB-231 breast, 3.31 µM; with MOLT-4 leukemia, 1.16 µM; in the test on RXF 393 renal, 2.95 µM. Besides, the GI50 is 3.85 µM in the test with UACC-257 melanoma and 1.98 µM in the test with UO-31 renal. Moreover, the TGI in the test on 786-0 renal was 3.1 µM; in the test on CAKI-1 renal, 7.64 µM; in the test on EKVX NSCLC, 27.4 µM; with MDA-MB-231 breast, 7.89 µM; with MOLT-4 leukemia, 3.23 µM; in the test on RXF 393 renal, 14.6 µM. Also, the TGI in the test on UACC-257 melanoma is more than 100 µM; in the test on UO-31 renal it was 4.99 µM.
On to `O=C(O)CCNCC(=O)O`, for which the TGI in the test on 786-0 renal, in the test with CAKI-1 renal, with EKVX NSCLC, in the test with MDA-MB-231 breast, in the test with MOLT-4 leukemia and with RXF 393 renal was more than 100 µM each time. In addition, the TGI in the test on UACC-257 melanoma and in the test on UO-31 renal was more than 100 µM each time.
